In the NIST ThermoML archive (doi:10.1021/acs.jced.8b00427):

Details: Liquid, Frequency=4 MHz, Pulse-echo method

FC(F)(F)/C=C/Cl [(E)-1-chloro-3,3,3-trifluoroprop-1-ene]
Details | speed of sound [m/s]
273.14 K, 30070 kPa | 936.9
273.15 K, 5030 kPa | 815.43
273.15 K, 20150 kPa | 892.92
273.15 K, 25090 kPa | 915.36
273.16 K, 190 kPa | 786.78
273.16 K, 1000 kPa | 791.78
273.16 K, 10050 kPa | 842.75
273.16 K, 35030 kPa | 957.33
283.14 K, 5170 kPa | 778.28
283.14 K, 10020 kPa | 806.46
283.14 K, 24930 kPa | 882.24
283.14 K, 30260 kPa | 906.25
283.15 K, 190 kPa | 746.74
283.16 K, 980 kPa | 752.01
283.16 K, 20000 kPa | 858.64
283.16 K, 34920 kPa | 926.3
293.15 K, 170 kPa | 707.09
293.15 K, 9990 kPa | 771.05
293.15 K, 20000 kPa | 826.3
293.15 K, 35000 kPa | 896.92
293.16 K, 1030 kPa | 713.25
293.16 K, 5090 kPa | 740.63
293.16 K, 30100 kPa | 875.12
313.14 K, 270 kPa | 628.5
313.15 K, 5010 kPa | 666.72
313.15 K, 10000 kPa | 702.15
313.15 K, 19990 kPa | 763.58
313.15 K, 30050 kPa | 816.73
313.15 K, 34920 kPa | 840.09
313.16 K, 1180 kPa | 636.05
333.14 K, 5010 kPa | 594.52
333.14 K, 9980 kPa | 634.9
333.15 K, 19990 kPa | 704.25
333.15 K, 29970 kPa | 761.64
333.15 K, 35060 kPa | 787.99
353.14 K, 10010 kPa | 571.03
353.14 K, 15090 kPa | 612.03
353.14 K, 20150 kPa | 648.34
353.15 K, 24990 kPa | 679.91
353.15 K, 30000 kPa | 710.32
353.15 K, 35040 kPa | 738.23
